From patent publication US7962290B1, “Identification of pharmacophores from co-crystals of spleen tyrosine kinase (SYK) and SYK ligands” (Rigel Pharmaceuticals, Inc., priority 2006, dated 2011)

Assay: Precipitation of ligand in crystal soaking solution
Assay type: physicochemical
Experimental: The pooled fractions were dialyzed against 300 mM NaCl, 10 mM Hepes pH 7.5, 5 mM DTT overnight at 4° C. then concentrated to 10.9 mg/mL in a Vivaspin centrifugal concentrator (MWCO=10 kDa). Crystals were obtained at 20° C. in sitting drop plates using 1 μl of protein and 1 μl of crystallant (20% PEG 3000, 100 mM Citrate pH 5.5) equilibrated against 200 μl of crystallant in the reservoir. Plate-shaped crystals were observed after approximately 24 hours. A single crystal was transferred from the crystallization drop to a plate containing crystallant and 11.5 mM Cpd. No. 1. The crystal was soaked for 22.5 hours in this solution. […] The crystal was transferred to a cryoprotectant containing 20% PEG 3000, 100 mM Citrate pH 5:5, 15% glycerol then plunge frozen into liquid nitrogen for X-ray diffraction analysis.
The pooled fractions were dialyzed against 300 mM NaCl, 10 mM Hepes pH 7.5, 5 mM DTT, 10% glycerol overnight at 4° C. then concentrated to 10.0 mg/mL in a Vivaspin centrifugal concentrator (MWCO=10 kDa). Crystals were obtained at 20° C. in sitting drop plates using 1 μl of protein and 1 μl of crystallant (20% PEG 3000, 100 mM Citrate pH 5.5) equilibrated against 200 μl of crystallant in the reservoir. Plate-shaped crystals were observed after approximately 24 hours. […]

Compound: Oc1cccc(Nc2ncc(F)c(Nc3cccc(O)c3)n2)c1 [Cpd. No. 1]
- precipitation at the end of the soak (crystallant (20% PEG 3000, 100 mM Citrate pH 5.5) with 11.5 mM compound, 22.5 hours): Some precipitation

Compound: COc1cc(Nc2ncc(F)c(Nc3ccc4c(n3)NC(=O)C(C)(C)O4)n2)cc(OC)c1OC [Cpd. No. 3]
- concentration of the ligand in solution (soak solution 30% PEG 3000, 50 mM Citrate pH 5.5, 5% DMSO, 2.4 mM added, 23.5 hours, some precipitation observed): less than 2.4 mM
